Laboratory results reported in patent US20100062078A1, “PHARMACEUTICAL COMPOSITION FOR TREATING CANCER AND THE SIGNALING PATHWAY THEREOF” (priority 2008, published 2010).

Assays:
MDAH-2774 [1] = experiment: XTT cell proliferation assay (cytotoxicity); type: cell-based, human; conditions: Homo sapiens
Description: (§1) Cells were seeded at 7×10^3 per well in 96-well culture plates before treatment with different concentrations of protoapigenone for 12, 24 and/or 48 hours. Next, the cytotoxicity of protoapigenone was determined using XTT cell proliferation assay (Sigma, St. Louis, Mo.). The absorbance of wavelength at 490 nm (OD490) and 650 nm (OD650) were determined respectively by enzyme-linked immunosorbent assay (ELISA) reader, and 50% of inhibitory concentration (IC50) was calculated by the value of OD490-OD650. In addition, in order to evaluate the long-term effect, the cells were treated with different concentration of protoapigenone for 3 hours, then were incubated with fresh medium for 14 days so as to form colonies. Finally, the cells were stained with crystal violet and were observed under the microscope.

[2] = XTT cell proliferation assay (cytotoxicity); type: cell-based
Description: as §1

C33A = experiment: XTT cell proliferation assay (cytotoxicity); type: cell-based; conditions: Homo sapiens, C-33-A; cervical cancer cell line C33A
Description: as §1

HeLa [3] = experiment: XTT cell proliferation assay (cytotoxicity); type: cell-based; conditions: Homo sapiens; cervical cancer cell line HeLa
Description: as §1

MDA-MB-468 = experiment: XTT cell proliferation assay (cytotoxicity); type: cell-based; conditions: Homo sapiens; breast cancer cell line MDA-MB-468
Description: as §1

SKOV3 [4] = experiment: XTT cell proliferation assay (cytotoxicity); type: cell-based; conditions: Homo sapiens, SK-OV-3; ovarian cancer cell line SKOV3
Description: as §1

T47D = experiment: XTT cell proliferation assay (cytotoxicity); type: cell-based; conditions: Homo sapiens; breast cancer cell line T47D
Description: as §1

SKOV3 cells = experiment: Cell survival assay (trypan blue) at cell cycle phases; type: cell-based, human; conditions: 4 hours
Description: SKOV3 cells at various cell cycle phases were incubated in the 6-cm Petri dishes and treated with protoapigenone at different dosages ([…]). Subsequently, the cells were harvested and mixed with trypan blue at a ratio of 1:1. The stained apoptotic cells were observed under the microscope.

LNCap cells [5] = experiment: Annexin V apoptosis assay; type: cell-based, human; conditions: 10 μM, 3 hours
Description: (§2) The theory of this assay is to detect early apoptotic cells during the apoptotic progression. The ovarian cancer cells and the prostate cancer cells respectively were incubated with protoapigenone at 10 μM for 3 hours on chamber slides, washed with cold PBS twice and stained with a binding buffer containing annexin V-fluorescein isothiocyanate (FITC) (1 mg/ml; Strong Biotech, Taipei, Taiwan) and 4,6-diamidino-2-phenylinodole (Sigma-Aldrich) at 25° C. for 15 minutes. The stained cells were washed with PBS twice and observed under the fluorescent microscope.

MDAH-2774 [6] = experiment: Annexin V apoptosis assay; type: cell-based, human; conditions: MDAH-2774, 10 μM, 3 hours
Description: as §2

SKOV3 [7] = experiment: Annexin V apoptosis assay; type: cell-based, human; conditions: SKOV3, 10 μM, 3 hours
Description: as §2

[8] = system: MDAH-2774 human ovarian cancer cells; experiment: Nude mice xenograft model, tumor growth; type: in vivo; conditions: low dose (0.069 μM/g) and high dose (0.69 μM/g) i.p. every other day, 7-week treatment
Description: (§3) MDAH-2774 human ovarian cancer cells of 2×10^6 (or LNCap prostate cancer cells of 1×10^6) in 0.1 ml PBS were injected subcutaneously at the right flank of 6-week-old female nude mice (Foxnlun/Foxulun). When tumors became visible (approximately 3×3 mm in size), the mice were randomly grouped and treated intraperitoneally with protoapigenone or vehicle every other day. […] Tumor size and body weight were measured twice a week using calipers, and their tumor volumes were calculated according to a standard formula: width^2×length/2. After treatment with protoapigenone for 5 weeks, the mice xenografted with LNCap cells were sacrificed by deep anesthesia, and the blood sampling by cardiac aspiration was done immediately after anesthesia. Complete blood count of the nude mice blood was determined by Sysmex XE-2100 (TOA Medical Electronics, Kobe, Japan), and the plasma blood urea nitrogen (BUN), creatine (Cr), asparatate aminotransferase (AST), and alanine aminotransferase (ALT) levels were determined by Beckman LX20 (Beckman-Coulter, U.S.A.)

[9] = system: LNCap prostate cancer cells; experiment: Nude mice xenograft model, tumor volume; type: in vivo; conditions: 5 weeks
Description: as §3

MDAH-2774 [10] = experiment: Clonogenic assay (colony formation); type: cell-based, human; conditions: 3 hours treatment, 14 days in fresh medium
Description: as §1

LNCap cells [11] = experiment: Cell cycle analysis (PI flow cytometry); type: cell-based, human; conditions: 6 hours and 12 hours
Description: The ovarian cancer cells and the prostate cancer cells respectively were treated with protoapigenone at different concentrations (0, 2.5, 5 and 10 μM) for 24 hours and 6 hours (or 12 hours). These cells were harvested by trypsin and fixed with 70% ethanol for 1 hour, washed with phosphate buffered saline (PBS) twice, and resuspended in propidium iodide (PI)/RNase A solution for 30 minutes. In accordance with the mechanism of DNA stained with propidium iodide, the cell cycle and sub-G1 distribution were detected by the FACScan flow cytometry (Becton Dickinson, San Jose, Calif.), and data analysis was done with CellQuest software (BD Bioscience).

HeLa [12] = experiment: Cell cycle distribution; type: cell-based, human
LNCap = experiment: TUNEL assay; type: cell-based, human; conditions: LNCap, 2.5, 5 and 10 μM, 12 or 24 hours
Description: TUNEL assay is performed to detect whether cellular DNA is fragmented. The prostate cancer cells were treated with protoapigenone at various concentrations (2.5, 5 and 10 μM) for 12 or 24 hours, then were stained with TUNEL using the DeadEnd Colorimetric TUNEL system (Promega, Madison, Wis.). In brief, the prostate cancer cells were fixed with 4% paraformaldehyde for 30 minutes after protoapigenone treatment. Next, the fixed cells were incubated with digoxigenin-conjugated dUTP and nucleotide mixture in a recombinant terminal deoxynucleotide transferase-catalyzed reaction in the humidified atmosphere at 37° C. Subsequently, they were immersed in the stop buffer for 15 minutes at 37° C. The Cells were washed with PBS, then were incubated in DAB solutions for 15 minutes in dark. The stained cells were observed under the microscope. The percentage of TUNEL-positive cells were counted in 1000 cells, and the apoptosis index in the later period was calculated.

For O=C1C=CC(O)(c2cc(=O)c3c(O)cc(O)cc3o2)C=C1 [protoapigenone], the inhibition at 1 µM (MDAH-2774 [1]; MDAH-2774, 1 μM protoapigenone, read-out: inhibition of cell growth) was 25%, the inhibition at 2.5 µM (MDAH-2774 [1]; MDAH-2774, 2.5 μM protoapigenone, read-out: inhibition of cell growth) was 53.4% and the IC50 (MDAH-2774 [1]; ovarian cancer cell line MDAH-2774, means ± SD of three independent experiments) was 0.69 ± 0.92 µM. It also gave an IC50 ([2]; HOSE 6-3 immortalized ovarian epithelial cells, immortalized human ovarian epithelial cells HOSE 6-3) of 8.98 ± 0.33 µM, an IC50 ([2]; HOSE 11-12 immortalized ovarian epithelial cells, immortalized human ovarian epithelial cells HOSE 11-12) of 10.1 ± 0.53 µM and an IC50 ([2]; MCF-10A immortalized breast epithelial cells, immortalized human breast epithelial cell MCF-10A) of 33.6 ± 0.53 µM. For the same compound, the IC50 (C33A) was 4.69 ± 0.21 µM, the IC50 (HeLa [3]) was 3.66 ± 0.61 µM and the IC50 (MDA-MB-468) was 3.33 ± 1.25 µM. The IC50 (SKOV3 [4]) was 0.78 ± 0.28 µM, the IC50 (T47D) was 5.13 ± 0.23 µM and the “decrease in number of SKOV3 cells proliferated at G2 phase” value (SKOV3 cells; 5 μM) was 20.3%. The “decrease in number of SKOV3 cells proliferated at M phase” value (SKOV3 cells; 5 μM) was 44.8%, the “decrease in number of SKOV3 cells proliferated at S phase” value (SKOV3 cells; 5 μM) was 23.5% and the “decrease in number of SKOV3 cells proliferated at G2 phase” value (SKOV3 cells; 10 μM) was 34.7%. The “decrease in number of SKOV3 cells proliferated at M phase” value (SKOV3 cells; 10 μM) was 70.5%, the “decrease in number of SKOV3 cells proliferated at S phase” value (SKOV3 cells; 10 μM) was 45.4% and the “ratio of annexin V-FITC positive cells” value (LNCap cells [5]) was 24.2±1.3%. For the same compound, the “cell apoptosis (annexin V-FITC)” value (MDAH-2774 [6]) was 24.5%, the “cell apoptosis (annexin V-FITC)” value (SKOV3 [7]) was 34.2% and the “tumor growth of MDAH-2774 cells vs PBS control” value [8] was “significantly suppressed”. The average tumor size ([9]; high dose (3.7 μM/g body weight i.p. every other day)) was 1153.0±218.7 mm^3, the average tumor size ([9]; low dose (0.37 μM/g body weight i.p. every other day)) was 1876.9±428.6 mm^3 and the “ratio of colony formation” value (MDAH-2774 [10]) was “decrease along with the increased protoapigenone concentrations”. The cell cycle distribution (LNCap cells [11]) was “arrests the LNCap cells at S and G2/M phases”, the cell cycle distribution (HeLa [12]) was “arrested at G2/M phase” and the “ratio of TUNEL positive cells” value (LNCap) was “increased along with time and the increased protoapigenone concentrations”.
